Reference: patent US8772499B2, “TRPV3 modulators” (AbbVie Inc., priority 2011, dated 2014)
Like-named read-outs stand apart in the source and are kept apart here.

Experiments:
human TRPV3 = molecular target: T1, human TRPV3 (Homo sapiens, UniProt Q8NET8); test: In vitro antagonism of recombinant human TRPV3 activation (FLIPR Tetra calcium assay); assay type: cell-based; details: HEK293 cells stably expressing human TRPV3, agonist 2-APB at 80 μM
T1 construct: expressed in transfected cells
T1 sequence (Q8NET8 1-790): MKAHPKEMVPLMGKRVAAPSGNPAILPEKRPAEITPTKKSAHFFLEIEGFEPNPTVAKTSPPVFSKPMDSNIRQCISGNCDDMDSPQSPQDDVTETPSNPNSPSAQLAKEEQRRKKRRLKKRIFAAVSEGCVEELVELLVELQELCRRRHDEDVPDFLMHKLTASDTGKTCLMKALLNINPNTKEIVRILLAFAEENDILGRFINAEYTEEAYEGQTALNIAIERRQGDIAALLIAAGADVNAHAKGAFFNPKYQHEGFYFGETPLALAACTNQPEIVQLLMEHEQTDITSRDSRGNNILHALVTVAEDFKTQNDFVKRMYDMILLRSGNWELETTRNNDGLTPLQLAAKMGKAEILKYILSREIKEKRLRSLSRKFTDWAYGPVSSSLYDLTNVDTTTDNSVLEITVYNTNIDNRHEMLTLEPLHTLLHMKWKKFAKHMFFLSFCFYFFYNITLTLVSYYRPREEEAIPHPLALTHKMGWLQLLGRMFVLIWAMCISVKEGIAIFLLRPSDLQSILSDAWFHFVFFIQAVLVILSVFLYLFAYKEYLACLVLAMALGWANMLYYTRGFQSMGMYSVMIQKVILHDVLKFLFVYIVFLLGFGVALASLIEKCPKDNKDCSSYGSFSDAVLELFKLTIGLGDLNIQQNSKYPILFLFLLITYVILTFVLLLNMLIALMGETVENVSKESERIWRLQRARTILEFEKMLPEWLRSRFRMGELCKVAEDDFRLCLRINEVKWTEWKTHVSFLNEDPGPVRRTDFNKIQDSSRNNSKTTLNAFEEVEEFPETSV
Summary of the method: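 Calcium flux read over a 10 min run: compound added at 10 s to Calcium-4-loaded human TRPV3-HEK293 cells, agonist 2-APB (80 μM, its EC80) after 3 min. IC50 derived from peak-minus-baseline signal as percentage of uninhibited 2-APB response, typically averaged over at least two runs.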

[1] = tested on: chronic constriction injury (CCI) model of neuropathic pain; test: In vivo chronic constriction injury (CCI) model of neuropathic pain, mechanical allodynia (von Frey); set-up: species or system CD1 mice; details: 100 mg/kg oral dose, mechanical allodynia 1 hour after dosing, CCI mice, average of eight mice, vehicle 0%, control 100%; for inhibition in vivo at 100 mg/kg: Mus musculus, po, 1 h, read-out: % EFFECT
Protocol: Test compounds were evaluated for analgesic effect in an in vivo chronic constriction injury (CCI) model of neuropathic pain. CD1 mice (Charles River) were used for these studies. Prior to testing (2-4 weeks) animals underwent a surgical procedure consisting of approximately 3 loose ligatures around the sciatic nerve. Following sterilization procedures, under isofluorane anesthetic, a 1.5 cm incision was made dorsal to the pelvis. The biceps femoris and gluteous superficialis (right side) were separated and the sciatic nerve exposed, isolated, and 2-4 loose ligatures (5-0 chromic gut) with less than 1 mm spacing were placed around it. Following hemostasis, the wound was sutured (layer of muscle closed with 5-0 nylon suture, and the wound closed with surgical staples) and coated with iodine. The mice were allowed to recover on a warming plate and were returned to their home cages (soft bedding) when able to walk on their own.
Two to four weeks after the surgery, test compound was administered orally (PO) in these mice, and mechanical allodynia was evaluated 1 hour after oral dosing where the threshold to response was assessed using calibrated von Frey monofilaments. The von Frey monofilaments were applied to the hind paw at increasing forces until the animal responded by lifting its paw. Normally, the force of the von Frey monofilament was innocuous and only in the altered state (allodynia or hyperalgesia) did the animals respond to this stimulation. […] At the end of the experiment, after behavioral testing, plasma (and in some instances brain tissue) was taken for exposure analysis.
Each test compound was evaluated in eight different mice. The data reported in Table 3 represent the average value of the approximate percent effect of each compound in relieving neuropathic pain in mice receiving 100 mg/kg oral dose of the test compound. The grams of force needed to elicit a withdrawal response from the injured mouse that was challenged with vehicle was assigned a 0% effect, while the grams of force needed to elicit a withdrawal response from the control was given a 100% effect.

[2] = In vitro human microsomal stability assay; assay type: in vitro ADME; details: for HUMAN MICROSOMAL STABILITY (% REMAINING AFTER 30 MINUTES): microsomes, 0.5 h, 0.5 μM, pH 7.4
Summary of the method: (§1)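 Sprague-Dawley rat or human liver microsomes; 37° C.; NADPH cofactor, also spiked into time-zero samples.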

[3] = In vitro rat microsomal stability assay; assay type: in vitro ADME, rat (Sprague-Dawley); details: for RAT MICROSOMAL STABILITY (% REMAINING AFTER 30 MINUTES): Sprague-Dawley, microsomes, 0.5 h, 0.5 μM, pH 7.4
Summary of the method: as §1

TRPV3 = TRPV3 agonist, relatively weak and nonspecific across TRPs; cited from earlier work
[4] = actual measured value shown parenthetically, in most cases average of at least two runs, read-out: IC50

SMILES	IC50 (human TRPV3; [4]) [nM]	IC50 (human TRPV3; reported range, read-out: IC50 (range class)) [nM]	% EFFECT [1] [%]	HUMAN […] (% REMAINING AFTER 30 MINUTES) ([2]; human liver microsomes, 0.5 μM substrate, 0.25 mg/mL microsomal protein, pH 7.4, 37° C., NADPH, 30 minutes) [%]	RAT […] (% REMAINING AFTER 30 MINUTES) ([3]; rat liver microsomes (Sprague-Dawley), 0.5 μM substrate, 0.25 mg/mL microsomal protein, pH 7.4, 37° C., NADPH, 30 minutes) [%]	inhibition in vivo at 100 mg/kg [1] [%]	HUMAN MICROSOMAL STABILITY (% REMAINING AFTER 30 MINUTES) [2] [%]	RAT MICROSOMAL STABILITY (% REMAINING AFTER 30 MINUTES) [3] [%]	EC50 (TRPV3) [nM]
C[C@]1(O)C[C@](c2cc(C(F)(F)F)ccn2)([C@H](O)c2ccccn2)C1 (relative stereo) [Example 285, cis-3-[(S)-hydroxy(pyridin-2-yl)methyl]-1-methyl-3-[4-(trifluoromethyl)-pyridin-2-yl]cyclobutanol]	1000	501 to 1000	59	83	69	–	–	–	–
CC1(O)CC(c2ccc(C(F)(F)F)cc2)(C(O)c2ccccn2)C1 (single isomer, unassigned) [Example 232]	1950	–	–	–	–	65	80	67	–
OC1CC(c2ccc(Cl)c(Cl)c2)(C(O)c2ccccn2)C1 (single isomer, unassigned) [Example 119]	570	–	16	–	–	–	>85	69	–
OC1CC(c2cc(C(F)(F)F)ccn2)(C(O)c2ccccn2)C1 [Example 283, trans-3-[(S)-hydroxy(pyridin-2-yl)methyl]-3-[4-(trifluoromethyl)pyridin-2-yl]cyclobutanol]	690	–	–	–	–	49	>85	>85	–
CN[C@@H]1CCC[C@H]1[C@@H](O)C1(c2ccc(Cl)c(Cl)c2)CCC1 [Example 228, (R)-[1-(3,4-dichlorophenyl)cyclobutyl][(1R,2R)-2-(methylamino)-cyclopentyl]methanol]	2520	–	–	–	–	52	70	25	–
OC1CC(c2ccc(Cl)c(Cl)c2)(C(O)c2ccccn2)C1 (single isomer, unassigned) [Example 118]	220	–	89	–	–	–	>85	74	–
OC1CC(c2ccnc(C(F)(F)F)c2)(C(O)c2ccccn2)C1 [Example 306, trans-3-[(S)-hydroxy(pyridin-2-yl)methyl]-3-[2-(trifluoromethyl)pyridin-4-yl]cyclobutanol]	140	–	–	–	–	0	>85	>85	–
C[C@]1(O)C[C@@](c2cccc(OC(F)(F)F)c2)([C@H](O)c2ccccn2)C1 [Example 262, cis-3-[(S)-hydroxy(pyridin-2-yl)methyl]-1-methyl-3-[3-(trifluoromethoxy)-phenyl]cyclobutanol]	630	–	–	–	–	45	48	57	–
O[C@H](c1ccccn1)[C@]1(c2ccc(Cl)c(Cl)c2)CCO1 [Example 136, (R)-[(2R)-2-(3,4-dichlorophenyl)oxetan-2-yl](pyridin-2-yl)methanol]	390	–	–	–	–	52	24	9.5	–
O[C@H](c1ccccn1)C1(c2ccc(OC(F)(F)F)cc2)CC(F)(F)C1 [Example 128, (S)-{3,3-difluoro-1-[4-(trifluoromethoxy)phenyl]cyclobutyl}(pyridin-2-yl)-methanol]	110	–	–	–	–	78	59	67	–
C[C@]1(O)C[C@@](c2ccc(OC(F)(F)F)cc2)([C@@H](O)c2ccccn2)C1 [Example 250, cis-3-[(R)-hydroxy(pyridin-2-yl)methyl]-1-methyl-3-[4-(trifluoromethoxy)-phenyl]cyclobutanol]	9230	–	–	–	–	57	70	70	–
CC1(O)CC(c2ccc(OC(F)(F)F)cc2)(C(O)c2ccccn2)C1 (single isomer, unassigned) [Example 134]	860	–	–	–	–	98	78	72	–
NCCOB(c1ccccc1)c1ccccc1 [Example 2-APB, 2-aminoethoxydiphenylborate]	–	–	–	–	–	–	–	–	~40000
OC1CC(c2ccc(C(F)(F)F)cc2)(C(O)c2ccccn2)C1 [Example 201, trans-3-[(S)-hydroxy(pyridin-2-yl)methyl]-3-[4-(trifluoromethyl)phenyl]-cyclobutanol]	6010	–	–	–	–	64	73	>85	–
OC(c1ccccn1)C1(c2ccc(Cc3ccccc3)cc2)CCC1 (centres unmarked) [Example 25, [1-(4-benzylphenyl)cyclobutyl](pyridin-2-yl)methanol]	1180	–	–	–	–	–	21	1.3	–
c1ccc(B(OB(c2ccccc2)c2ccccc2)c2ccccc2)cc1 [DPBA, diphenylboronic anhydride]	–	–	–	–	–	–	–	–	~40000
CC1(O)CC(c2cccc(C(F)(F)F)c2)(C(O)c2ccccn2)C1 (single isomer, unassigned) [Example 236]	760	–	–	–	–	33	54	41	–
